Assay results reported in USRE48461E1, “Modulation of androgen receptor expression” (Ionis Pharmaceuticals, Inc., priority 2012, dated 2021).
pIC50: −log10 of the molar value. Oligonucleotides are written 5' to 3', each unit as a sugar letter and its base; * is a phosphorothioate linkage, no mark a phosphodiester; rarer units and linkages stand in square brackets, end groups in braces. Plain capitals give the bases only. e = 2'-O-(2-methoxyethyl) (MOE); k = constrained ethyl (cEt); [5mC] = 5-methylcytosine; d = 2'-deoxy (DNA)

Assays:
AR mRNA [1] = test: AR mRNA in LnCaP cells by free uptake (hAR_LTS00943); format: cell-based, human; conditions: 24 hrs
Protocol: Cells were plated at a concentration of 4,000 cells/well in 96-well plates. ISIS oligonucleotides, specified in Table 68, were added individually at 0.02 μM, 0.10 μM, 0.50 μM, 2.50 μM, or 10.00 μM. After an incubation period of 24 hrs, mRNA levels were measured using primer probe set hAR_LTS00943.

AR mRNA [2] = test: Dose-dependent antisense inhibition of human AR in HuVEC cells (electroporation, qRT-PCR RTS3559, IC50); format: cell-based; conditions: HuVEC
Procedure, shortened: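 HuVEC cells dosed with antisense oligonucleotides by electroporation and treated approximately 16 hours. AR mRNA quantified by real-time qPCR with primer probe set RTS3559 and normalised to total RNA by RIBOGREEN; IC50 from dose-response.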

AR mRNA [3] = test: Antisense inhibition of human AR in HuVEC cells, single concentration (electroporation, qRT-PCR RTS3559); format: cell-based; conditions: electroporation, approximately 24 hours, relative to untreated control
Procedure, shortened: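 HuVEC cells electroporated with antisense oligonucleotides at a single concentration. AR mRNA quantified by qRT-PCR using human primer-probe set RTS3559 and normalised to total RNA content by RIBOGREEN.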

[4] = Table 36, electroporation, approximately 16 hours
[5] = Table 24, 1,000 nM oligonucleotide
[6] = Table 35, electroporation, approximately 16 hours

Substance | percent inhibition of AR, 46.9 nM (AR mRNA [2]; [4]) [%] | percent inhibition of AR, 187.5 nM (AR mRNA [2]; [4]) [%] | percent inhibition of AR, 750.0 nM (AR mRNA [2]; [4]) [%] | percent inhibition of AR, 3000.0 nM (AR mRNA [2]; [4]) [%] | pIC50 (AR mRNA [2]; [4]) | % inhibition (AR mRNA [3]; [5]) [%] | percent inhibition of AR, 46.9 nM (AR mRNA [2]; [6]) [%] | percent inhibition of AR, 187.5 nM (AR mRNA [2]; [6]) [%] | percent inhibition of AR, 750.0 nM (AR mRNA [2]; [6]) [%] | percent inhibition of AR, 3000.0 nM (AR mRNA [2]; [6]) [%] | pIC50 (AR mRNA [2]; [6]) | also measured
569221 (antisense eT*eG*kA*kT*kT*dT*dA*dA*dT*dG*dG*dT*dT*kG*k[5mC]*kA) [compound 569221] | – | – | – | – | – | – | – | – | – | – | – | Percent inhibition of AR mRNA (AR mRNA [1]; 0.02 μM): 18%; Percent inhibition of AR mRNA (AR mRNA [1]; 0.1 μM): 31%; Percent inhibition of AR mRNA (AR mRNA [1]; 0.5 μM): 49%; Percent inhibition of AR mRNA (AR mRNA [1]; 10 μM): 91%; percent inhibition of AR (AR mRNA [2]; 62.5 nM, ~16 h, Table 12): 12%; percent inhibition of AR (AR mRNA [2]; 125.0 nM, ~16 h, Table 12): 32%; percent inhibition of AR (AR mRNA [2]; 500.0 nM, ~16 h, Table 12): 57%; percent inhibition of AR (AR mRNA [2]; 1000.0 nM, ~16 h, Table 12): 73%; pIC50 (AR mRNA [2]; ~16 h, Table 12): 6.53
579666 (antisense eT*kG*kA*eT*eT*kT*kA*dA*dT*dG*dG*dT*dT*dG*k[5mC]*kA) [compound 579666] | – | – | – | – | – | – | – | – | – | – | – | Percent inhibition of AR mRNA (AR mRNA [1]; 0.02 μM): 0%; Percent inhibition of AR mRNA (AR mRNA [1]; 0.1 μM): 8%; Percent inhibition of AR mRNA (AR mRNA [1]; 0.5 μM): 30%; Percent inhibition of AR mRNA (AR mRNA [1]; 10 μM): 68%; percent inhibition of AR (AR mRNA [2]; 62.5 nM, ~16 h, Table 10): 33%; percent inhibition of AR (AR mRNA [2]; 125.0 nM, ~16 h, Table 10): 34%; percent inhibition of AR (AR mRNA [2]; 500.0 nM, ~16 h, Table 10): 64%; percent inhibition of AR (AR mRNA [2]; 1000.0 nM, ~16 h, Table 10): 80%; pIC50 (AR mRNA [2]; ~16 h, Table 10): 6.64
584165 (kT*k[5mC]*kA*dA*dT*d[5mC]*dT*dA*dG*dA*dT*dA*d[5mC]*k[5mC]*kA*kT; antisense) [compound 584165] | 12 | 34 | 66 | 89 | 6.52 | 70 | – | – | – | – | – | –
584166 (k[5mC]*kA*k[5mC]*dA*dT*d[5mC]*dA*dG*dA*dA*dG*dG*dA*kG*kT*kA; antisense) [compound 584166] | – | – | – | – | – | 89 | 34 | 52 | 84 | 92 | 7.00 | –
584167 (kG*kA*kG*dT*dG*dT*dT*dA*dA*dT*dG*dA*dA*kG*kA*k[5mC]; antisense) [compound 584167] | – | – | – | – | – | 78 | 13 | 45 | 76 | 93 | 6.68 | –
584168 (k[5mC]*kT*kG*dA*dT*dT*dA*dG*d[5mC]*dT*dA*dT*dG*kA*k[5mC]*k[5mC]; antisense) [compound 584168] | 5 | 32 | 70 | 91 | 6.49 | 70 | – | – | – | – | – | –
584179 (kA*kT*kG*dA*dG*dT*d[5mC]*d[5mC]*dT*d[5mC]*dA*dG*dA*kA*kT*k[5mC]; antisense) [compound 584179] | – | – | – | – | – | 74 | 1 | 25 | 62 | 87 | 6.36 | –
584180 (kG*kT*kA*dG*dA*dT*dT*d[5mC]*dT*dA*dG*d[5mC]*dT*kT*kT*kG; antisense) [compound 584180] | – | – | – | – | – | 81 | 26 | 56 | 84 | 96 | 6.92 | –
584183 (kA*k[5mC]*kA*dG*dG*d[5mC]*dT*d[5mC]*dT*dG*dA*d[5mC]*dT*kA*kG*kG; antisense) [compound 584183] | – | – | – | – | – | 76 | 3 | 41 | 64 | 87 | 6.51 | –
584233 (kG*kG*kA*dT*dT*d[5mC]*dT*d[5mC]*dT*dA*d[5mC]*dA*d[5mC]*kA*k[5mC]*kA; antisense) [compound 584233] | 0 | 30 | 66 | 86 | 6.41 | – | – | – | – | – | – | % inhibition (AR mRNA [3]; Table 25, 1,000 nM oligonucleotide): 62%
